Reference: patent US8546608B2, “Proteasome inhibitors and methods of using the same” (Cephalon, Inc., priority 2003, dated 2013)

Assays:
[1] = molecular target: T1, proteasome in Molt-4 cells (human leukemia) (Homo sapiens, UniProt P20618+P28074); type: cell-based; conditions: assay of Example E, inhibition of MOLT4; read-out: MOLT4 (EC50)
T1 sequence (P28074 60-263): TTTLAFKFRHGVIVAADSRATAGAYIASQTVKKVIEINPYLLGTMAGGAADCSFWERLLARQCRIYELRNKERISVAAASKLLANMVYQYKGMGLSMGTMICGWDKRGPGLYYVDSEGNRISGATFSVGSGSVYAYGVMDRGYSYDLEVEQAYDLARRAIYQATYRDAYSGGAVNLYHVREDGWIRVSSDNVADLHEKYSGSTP
T1 sequence (P20618 29-241): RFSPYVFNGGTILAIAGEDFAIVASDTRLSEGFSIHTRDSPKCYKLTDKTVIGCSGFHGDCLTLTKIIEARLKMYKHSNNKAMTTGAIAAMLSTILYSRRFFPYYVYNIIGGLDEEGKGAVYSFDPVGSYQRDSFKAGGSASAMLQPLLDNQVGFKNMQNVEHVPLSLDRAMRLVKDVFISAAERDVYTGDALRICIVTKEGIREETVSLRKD
Method in brief: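 Intact Molt-4 cells (6×10^6 cells/mL) in HEPES-buffered saline were preincubated with inhibitor 15 min at 37 °C, then given cell-permeable MeOSuc-FLF-AFC at 25 μM final.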

[2] = molecular target: T2, 20S Human Erythrocyte Proteasome (HEP) (Homo sapiens, UniProt P20618+P28074); assay: Chymotrypsin-like activity of 20S Human Erythrocyte Proteasome (HEP), IC50 determination; type: biochemical; conditions: assay of Example C, inhibition of HEP
T2 construct: 20S Human Erythrocyte Proteasome (HEP), purchased from Immatics Biotechnologies Inc; purchased Immatics Biotechnologies Inc., Tübingen, Germany; host or cells: human erythrocytes (natural source)
Method in brief: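 20S proteasome at 0.2 μg/mL (about 0.6 nM catalytic sites) in 20 mM Tris with 0.04% SDS, preincubated 15 min at 37° C with inhibitor before Suc-LLVY-AMC (100 μM final). AMC fluorescence read in the linear range; triplicates, IC50 from concentration series.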

| SMILES | EC50 [1] | IC50 [2] |
| --- | --- | --- |
| CCCCCCCCCCCC(=O)N[C@@H](CCCNC(=N)N[N+](=O)[O-])C(=O)N[C@@H](CC(C)C)B1O[C@@H]2C[C@@H]3C[C@@H](C3(C)C)[C@]2(C)O1 [D.3.7, Dodecanamide,N-[(1S)-1-[[[(1R)-1-[(3aS,4S,6S,7aR)-hexahydro-3a,5,5-trimethyl-4,6-methano-1,3,2-benzodioxaborol-2-yl]-3-methylbutyl]amino]carbonyl]-4-[[imino(nitroamino)methyl]amino]butyl]] | < 200 nM | < 10 nM |
| CCCCCCCC(=O)N[C@@H](CCCNC(=N)N[N+](=O)[O-])C(=O)N[C@@H](CC(C)C)B1O[C@@H]2C[C@@H]3C[C@@H](C3(C)C)[C@]2(C)O1 [D.3.8, Octanamide,N-[(1S)-1-[[[(1R)-1-[(3aS,4S,6S,7aR)-hexahydro-3a,5,5-trimethyl-4,6-methano-1,3,2-benzodioxaborol-2-yl]-3-methylbutyl]amino]carbonyl]-4-[[imino(nitroamino)methyl]amino]butyl]] | < 200 nM | < 10 nM |
| CCCCC[C@H]1CC[C@H](C(=O)N[C@@H](CCCNC(=N)N[N+](=O)[O-])C(=O)N[C@@H](CC(C)C)B2O[C@@H]3C[C@@H]4C[C@@H](C4(C)C)[C@]3(C)O2)CC1 [D.3.11, trans-4-Pentylcyclohexanecarboxamide, N-[(1S)-1-[[[(1R)-1-[(3aS,4S,6S,7aR)-hexahydro-3a,5,5-trimethyl-4,6-methano-1,3,2-benzodioxaborol-2-yl]-3-methylbutyl]amino]carbonyl]-4-[[imino(nitroamino)methyl]amino]butyl]] | < 200 nM | < 10 nM |
| CCCCCCCCC(=O)N[C@@H](CCCNC(=N)N[N+](=O)[O-])C(=O)N[C@@H](CC(C)C)B1O[C@@H]2C[C@@H]3C[C@@H](C3(C)C)[C@]2(C)O1 [D.3.15, Nonanamide,N-[(1S)-1-[[[(1R)-1-[(3aS,4S,6S,7aR)-hexahydro-3a,5,5-trimethyl-4,6-methano-1,3,2-benzodioxaborol-2-yl]-3-methylbutyl]amino]carbonyl]-4-[[imino(nitroamino)methyl]amino]butyl]] | < 200 nM | < 10 nM |
| C/C(=C\c1ccccc1)C(=O)N[C@@H](CCCNC(=N)N[N+](=O)[O-])C(=O)N[C@@H](CC(C)C)B1O[C@@H]2C[C@@H]3C[C@@H](C3(C)C)[C@]2(C)O1 [D.3.26, (E)-2-Methyl-3-phenyl-acrylamide,N-[(1S)-1-[[[(1R)-1-[(3aS,4S,6S,7aR)-hexahydro-3a,5,5-trimethyl-4,6-methano-1,3,2-benzodioxaborol-2-yl]-3-methylbutyl]amino]carbonyl]-4-[[imino(nitroamino)methyl]amino]butyl]] | < 200 nM | < 10 nM |
| COc1ccccc1/C=C\C(=O)N[C@@H](CCCNC(=N)N[N+](=O)[O-])C(=O)N[C@@H](CC(C)C)B1O[C@@H]2C[C@@H]3C[C@@H](C3(C)C)[C@]2(C)O1 [D.3.31, cis-3-(2-Methoxyphenyl)acrylamide,N-[(1S)-1-[[[(1R)-1-[(3aS,4S,6S,7aR)-hexahydro-3a,5,5-trimethyl-4,6-methano-1,3,2-benzodioxaborol-2-yl]-3-methylbutyl]amino]carbonyl]-4-[[imino(nitroamino)methyl]amino]butyl]] | 200 to 2000 nM | < 100 nM |
| Cc1ccc(CCCC(=O)N[C@@H](CCCNC(=N)N[N+](=O)[O-])C(=O)N[C@@H](CC(C)C)B2O[C@@H]3C[C@@H]4C[C@@H](C4(C)C)[C@]3(C)O2)cc1 [D.3.36, 4-(4-methylphenyl)butanamide,N-[(1S)-1-[[[(1R)-1-[(3aS,4S,6S,7aR)-hexahydro-3a,5,5-trimethyl-4,6-methano-1,3,2-benzodioxaborol-2-yl]-3-methylbutyl]amino]carbonyl]-4-[[imino(nitroamino)methyl]amino]butyl]] | < 200 nM | < 10 nM |
| CC(C)CCCC(=O)N[C@@H](CCCNC(=N)N[N+](=O)[O-])C(=O)N[C@@H](CC(C)C)B1O[C@@H]2C[C@@H]3C[C@@H](C3(C)C)[C@]2(C)O1 [D.3.38] | < 200 nM | < 10 nM |
| CC(C)C[C@H](NC(=O)[C@H](CCCNC(=N)N[N+](=O)[O-])NC(=O)CCc1cccs1)B1O[C@@H]2C[C@@H]3C[C@@H](C3(C)C)[C@]2(C)O1 [D.3.39, 3-Thiophen-2-yl-propanamide,N-[(1S)-1-[[[(1R)-1-[(3aS,4S,6S,7aR)-hexahydro-3a,5,5-trimethyl-4,6-methano-1,3,2-benzodioxaborol-2-yl]-3-methylbutyl]amino]carbonyl]-4-[[imino(nitroamino)methyl]amino]butyl]] | < 200 nM | < 10 nM |
| CC(C)C[C@H](NC(=O)[C@H](CCCNC(=N)N[N+](=O)[O-])NC(=O)CC1CCCCCC1)B1O[C@@H]2C[C@@H]3C[C@@H](C3(C)C)[C@]2(C)O1 [D.3.43] | < 200 nM | < 10 nM |

Now from value to compound:

| EC50 [1] | IC50 [2] | SMILES |
| --- | --- | --- |
| < 200 nM | < 10 nM | CC(C)C[C@H](NC(=O)[C@H](CCCNC(=N)N[N+](=O)[O-])NC(=O)c1cccc2ccccc12)B1O[C@@H]2C[C@@H]3C[C@@H](C3(C)C)[C@]2(C)O1 [D.3.2, Naphthalen-1-carboxamide,N-[(1S)-1-[[[(1R)-1-[(3aS,4S,6S,7aR)-hexahydro-3a,5,5-trimethyl-4,6-methano-1,3,2-benzodioxaborol-2-yl]-3-methylbutyl]amino]carbonyl]-4-[[imino(nitroamino)methyl]amino]butyl]] |
| 200 to 2000 nM | < 10 nM | CC(C)C[C@H](NC(=O)[C@H](CCCNC(=N)N[N+](=O)[O-])NC(=O)Cc1ccccc1)B1O[C@@H]2C[C@@H]3C[C@@H](C3(C)C)[C@]2(C)O1 [D.3.3] |
| < 200 nM | < 10 nM | CC(C)C[C@H](NC(=O)[C@H](CCCNC(=N)N[N+](=O)[O-])NC(=O)CCCc1ccccc1)B1O[C@@H]2C[C@@H]3C[C@@H](C3(C)C)[C@]2(C)O1 [D.3.12, 4-Phenylbutanamide,N-[(1S)-1-[[[(1R)-1-[(3aS,4S,6S,7aR)-hexahydro-3a,5,5-trimethyl-4,6-methano-1,3,2-benzodioxaborol-2-yl]-3-methylbutyl]amino]carbonyl]-4-[[imino(nitroamino)methyl]amino]butyl]] |
| < 200 nM | < 10 nM | CC(C)C[C@H](NC(=O)[C@H](CCCNC(=N)N[N+](=O)[O-])NC(=O)c1ccc(Br)cc1)B1O[C@@H]2C[C@@H]3C[C@@H](C3(C)C)[C@]2(C)O1 [D.3.24, 4-Bromobenzamide,N-[(1S)-1-[[[(1R)-1-[(3aS,4S,6S,7aR)-hexahydro-3a,5,5-trimethyl-4,6-methano-1,3,2-benzodioxaborol-2-yl]-3-methylbutyl]amino]carbonyl]-4-[[imino(nitroamino)methyl]amino]butyl]] |
| < 200 nM | < 10 nM | CC(C)C[C@H](NC(=O)[C@H](CCCNC(=N)N[N+](=O)[O-])NC(=O)COc1ccc2ccccc2c1)B1O[C@@H]2C[C@@H]3C[C@@H](C3(C)C)[C@]2(C)O1 [D.3.27, 2-[(Naphthalen-2-yl)oxy]acetamide,N-[(1S)-1-[[[(1R)-1-[(3aS,4S,6S,7aR)-hexahydro-3a,5,5-trimethyl-4,6-methano-1,3,2-benzodioxaborol-2-yl]-3-methylbutyl]amino]carbonyl]-4-[[imino(nitroamino)methyl]amino]butyl]] |
| < 200 nM | < 10 nM | CC(C)C[C@H](NC(=O)[C@H](CCCNC(=N)N[N+](=O)[O-])NC(=O)Cc1ccccc1Cl)B1O[C@@H]2C[C@@H]3C[C@@H](C3(C)C)[C@]2(C)O1 [D.3.29, 2-(2-Chlorophenyl)acetamide,N-[(1S)-1-[[[(1R)-1-[(3aS,4S,6S,7aR)-hexahydro-3a,5,5-trimethyl-4,6-methano-1,3,2-benzodioxaborol-2-yl]-3-methylbutyl]amino]carbonyl]-4-[[imino(nitroamino)methyl]amino]butyl]] |
| < 200 nM | < 10 nM | CC(C)C[C@H](NC(=O)[C@H](CCCNC(=N)N[N+](=O)[O-])NC(=O)/C=C/c1ccccc1Br)B1O[C@@H]2C[C@@H]3C[C@@H](C3(C)C)[C@]2(C)O1 [D.3.34] |
| < 200 nM | < 10 nM | CC(C)C[C@H](NC(=O)[C@H](CCCNC(=N)N[N+](=O)[O-])NC(=O)CSc1ccc2ccccc2c1)B1O[C@@H]2C[C@@H]3C[C@@H](C3(C)C)[C@]2(C)O1 [D.3.37] |
| 200 to 2000 nM | < 10 nM | CC(C)C[C@H](NC(=O)[C@H](CCCNC(=N)N[N+](=O)[O-])NC(=O)CCc1ccccc1)B1O[C@@H]2C[C@@H]3C[C@@H](C3(C)C)[C@]2(C)O1 [D.3.49, 3-Phenylpropanamide,N-[(1S)-1-[[[(1R)-1-[(3aS,4S,6S,7aR)-hexahydro-3a,5,5-trimethyl-4,6-methano-1,3,2-benzodioxaborol-2-yl]-3-methylbutyl]amino]carbonyl]-4-[[imino(nitroamino)methyl]amino]butyl]] |
| < 200 nM | < 10 nM | COc1ccc(CCCC(=O)N[C@@H](CCCNC(=N)N[N+](=O)[O-])C(=O)N[C@@H](CC(C)C)B2O[C@@H]3C[C@@H]4C[C@@H](C4(C)C)[C@]3(C)O2)cc1 [D.3.50] |
